Assay results from the supplement of paper PMC4862054.

Legend:
Settings in all cases: incubation time: 72 h
[1] = system: BT-474; assay: normalised viability (% of control), CellTiter-Blue; higher = more viable cells (about 100 = DMSO control)
How it was run: (§1)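 Plates were quality-checked by Z'-factor and normalised to vehicle (100) and a positive kill control (0). The underlying assay incubated breast cancer cell lines for 72 h on 384-well plates with compound, then added 2.5 µl CellTiter-Blue for 2 h at 37 °C and read at 560/590 nm. The value is normalised viability at a single listed concentration of the series.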

[2] = system: BT-549; assay: as above
How it was run: as §1

[3] = system: DU-4475; assay: as above
How it was run: as §1

[4] = system: HCC1599; assay: as above
How it was run: as §1

[5] = system: HDQ-P1; assay: as above
How it was run: as §1

[6] = system: MDA-MB-231; assay: as above
How it was run: as §1

[7] = system: MDA-MB-436; assay: as above
How it was run: as §1

[8] = system: MDA-MB-453; assay: as above
How it was run: as §1

[9] = system: MFM-223; assay: as above
How it was run: as §1

[10] = system: BT-474; assay: drug sensitivity score (DSS), CellTiter-Blue viability (DSS (AUC-based score)); higher = stronger viability inhibition; extreme values may be limits of the assay
Experimental: (§2)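 DSRT with the CellTiter-Blue (resazurin reduction) viability readout, fluorescence 560/590 nm, 72 h incubation. Plates were normalised to DMSO and benzethonium chloride controls. DSS is computed from the area under the fitted dose-response curve (5 or 9 concentrations).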

[11] = system: BT-549; assay: as above
Experimental: as §2

[12] = system: CAL-120; assay: as above
Experimental: as §2

[13] = system: CAL-148; assay: as above
Experimental: as §2

[14] = system: CAL-51; assay: as above
Experimental: as §2

[15] = system: CAL-85-1; assay: as above
Experimental: as §2

[16] = system: DU-4475; assay: as above
Experimental: as §2

[17] = system: HCC1143; assay: as above
Experimental: as §2

[18] = system: HCC1599; assay: as above
Experimental: as §2

[19] = system: HCC1937; assay: as above
Experimental: as §2

[20] = system: HDQ-P1; assay: as above
Experimental: as §2

[21] = system: Hs578T; assay: as above
Experimental: as §2

[22] = system: MDA-MB-231; assay: as above
Experimental: as §2

[23] = system: MDA-MB-436; assay: as above
Experimental: as §2

[24] = system: MDA-MB-453; assay: as above
Experimental: as §2

[25] = system: MDA-MB-468; assay: as above
Experimental: as §2

[26] = system: MFM-223; assay: as above
Experimental: as §2

[27] = system: SK-BR-3; assay: as above
Experimental: as §2

Compound	normalised viability ([1]; 100 nM) [%]	normalised viability ([2]; 100 nM) [%]	normalised viability ([3]; 10 nM) [%]	normalised viability ([4]; 100 nM) [%]	normalised viability ([5]; 10 nM) [%]	normalised viability ([6]; 100 nM) [%]	normalised viability ([7]; 100 nM) [%]	normalised viability ([8]; 10 nM) [%]	normalised viability ([9]; 100 nM) [%]	drug sensitivity score [10]	drug sensitivity score [11]	drug sensitivity score [12]	drug sensitivity score [13]	drug sensitivity score [14]	drug sensitivity score [15]	drug sensitivity score [16]	drug sensitivity score [17]	drug sensitivity score [18]	drug sensitivity score [19]	drug sensitivity score [20]	drug sensitivity score [21]	drug sensitivity score [22]	drug sensitivity score [23]	drug sensitivity score [24]	drug sensitivity score [25]	drug sensitivity score [26]	drug sensitivity score [27]	normalised viability ([1]; 400 nM) [%]	normalised viability ([2]; 400 nM) [%]	normalised viability ([3]; 40 nM) [%]	normalised viability ([4]; 400 nM) [%]	normalised viability ([5]; 40 nM) [%]	normalised viability ([6]; 400 nM) [%]	normalised viability ([7]; 400 nM) [%]	normalised viability ([8]; 40 nM) [%]	normalised viability ([9]; 400 nM) [%]
CNCc1ccc(-c2[nH]c3cc(F)cc4c3c2CCNC4=O)cc1 [Rucaparib]	100	112	106	114	109	98	129	98.8	109	0	0	0	1.96	1.41	0	0	0	0	6.08	0	0	2.45	0	2.23	0	1.28	0	–	–	–	–	–	–	–	–	–
N[C@@H](CSC(c1ccccc1)(c1ccccc1)c1ccccc1)C(=O)O [S-trityl-L-cysteine]	–	–	–	–	–	–	–	–	–	4.93	2.15	10.4	0	0	0	0	1.21	0	16.4	0	12.9	14.7	4.31	0	12	0	15.5	109	75.4	99.9	89.6	94.1	91.7	98.6	88.8	99.8
